Measured values: US20240368078A1, “ARYL HETEROCYCLIC COMPOUNDS AS Kv1.3 POTASSIUM SHAKER CHANNEL BLOCKERS” (D.E. SHAW RESEARCH, LLC, priority 2021, published 2024)

What was measured:
Kv1.3 potassium channel = Kv1.3 potassium channel (Homo sapiens (Human), UniProt P22001); assay: Kv1.3 potassium channel blocker activity, automated whole-cell patch clamp in CHO-K1 cells stably expressing Kv1.3; format: cell-based; settings: Patchliner patch clamp
Method: Example 21. Evaluation of Kv1.3 Potassium Channel Blocker Activities
This assay is used to evaluate the disclosed compounds' activities as Kv1.3 potassium channel blockers.
CHO-K1 cells stably expressing Kv1.3 were grown in DMEM containing 10% heat-inactivated FBS, 1 mM sodium pyruvate, 2 mM L-glutamine, and G418 (500 μg/ml). Cells were grown in culture flasks at 37° C. in a 5% C02-humidified incubator.
(§1) The cells were bathed in an extracellular solution containing 140 mM NaCl, 4 mM KCl, 2 mM CaCl2), 1 mM MgCl2, 5 mM glucose, 10 mM HEPES; pH adjusted to 7.4 with NaOH; 295-305 mOsm. The internal solution contained 50 mM KCl, 10 mM NaCl, 60 mM KF, 20 mM EGTA, 10 mM HEPES; pH adjusted to 7.2 with KOH; 285 mOsm. All compounds were dissolved in DMSO at 30 mM. Compound stock solutions were freshly diluted with external solution to concentrations of 30 nM, 100 nM, 300 nM, 1 μM, 3 μM, 10 μM, 30 μM and 100 μM. The highest content of DMSO (0.3%) was present in 100 μM.
The currents were evoked by applying 100 ms depolarizing pulses from −90 mV (holding potential) to +40 mV were applied with 0.1 Hz frequency. Control (compound-free) and compound pulse trains for each compound concentration applied contained 20 pulses. 10-second breaks were used between pulse trains (see Table A below).
Whole-cell current recordings and compound application were enabled by means of an automated patch clamp platform Patchliner (Nanion Technologies GmbH). EPC 10 patch clamp amplifier (HEKA Elektronik Dr. Schulze GmbH) along with Patchmaster software (HEKA Elektronik Dr. Schulze GmbH) was used for data acquisition. Data were sampled at 10 kHz without filtering. Passive leak currents were subtracted online using a P/4 procedure (HEKA Elektronik Dr. Schulze GmbH). Increasing compound concentrations were applied consecutively to the same cell without washouts in between. Total compound incubation time before the next pulse train was not longer than 10 seconds. Peak current inhibition was observed during compound equilibration.
(§2) AUC and peak values were obtained with Patchmaster (HEKA Elektronik Dr. Schulze GmbH). To determine IC50, the last single pulse in the pulse train corresponding to a given compound concentration was used. Obtained AUC and peak values in the presence of compound were normalized to control values in the absence of compound. Using Origin (OridinLab), IC50 was derived from data fit to Hill equation: Icompound/Icontrol=(100-A)/(1+([compound]/IC50)nH)+A, where IC50 value is the concentration at which current inhibition is half-maximal, [compound] is the applied compound concentration, A is the fraction of current that is not blocked and nH is the Hill coefficient.

hERG channel = hERG channel (Homo sapiens (Human), UniProt Q12809); assay: hERG electrophysiology, automated whole-cell patch clamp in CHO-K1 cells stably expressing hERG; format: cell-based; settings: Patchliner patch clamp
Chain of hERG channel (Q12809 whole entry): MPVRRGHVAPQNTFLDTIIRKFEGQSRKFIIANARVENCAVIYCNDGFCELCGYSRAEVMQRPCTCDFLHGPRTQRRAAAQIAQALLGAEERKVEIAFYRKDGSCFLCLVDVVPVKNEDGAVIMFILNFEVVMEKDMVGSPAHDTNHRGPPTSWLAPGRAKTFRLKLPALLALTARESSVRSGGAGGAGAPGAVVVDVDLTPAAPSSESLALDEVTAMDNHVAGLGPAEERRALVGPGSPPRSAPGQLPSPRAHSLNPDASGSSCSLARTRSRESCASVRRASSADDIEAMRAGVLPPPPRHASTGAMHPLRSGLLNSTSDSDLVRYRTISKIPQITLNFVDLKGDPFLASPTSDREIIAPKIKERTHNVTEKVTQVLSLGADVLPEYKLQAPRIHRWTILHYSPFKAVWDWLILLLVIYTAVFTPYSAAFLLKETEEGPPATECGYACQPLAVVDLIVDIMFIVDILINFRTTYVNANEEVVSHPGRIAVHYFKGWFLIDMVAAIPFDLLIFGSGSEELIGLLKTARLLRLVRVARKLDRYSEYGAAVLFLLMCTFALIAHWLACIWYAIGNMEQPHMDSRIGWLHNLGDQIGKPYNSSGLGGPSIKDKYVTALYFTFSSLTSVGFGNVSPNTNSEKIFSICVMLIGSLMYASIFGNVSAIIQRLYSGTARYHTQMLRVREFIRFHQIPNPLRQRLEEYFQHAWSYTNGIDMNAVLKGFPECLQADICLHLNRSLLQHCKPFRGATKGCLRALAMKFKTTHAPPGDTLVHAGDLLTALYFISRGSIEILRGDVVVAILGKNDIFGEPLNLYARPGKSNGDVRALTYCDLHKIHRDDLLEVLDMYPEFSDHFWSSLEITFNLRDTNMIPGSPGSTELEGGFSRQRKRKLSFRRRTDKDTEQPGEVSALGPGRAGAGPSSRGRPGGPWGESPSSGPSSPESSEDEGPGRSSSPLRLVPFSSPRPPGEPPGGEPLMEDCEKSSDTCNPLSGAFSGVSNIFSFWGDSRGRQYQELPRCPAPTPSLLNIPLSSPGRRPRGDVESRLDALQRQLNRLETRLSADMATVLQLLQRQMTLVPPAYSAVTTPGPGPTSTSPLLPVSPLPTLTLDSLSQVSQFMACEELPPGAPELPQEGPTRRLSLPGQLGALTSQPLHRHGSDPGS
Method: Example 22. Evaluation of hERG Activities
This assay is used to evaluate the disclosed compounds's inhibition activities against the hERG channel.
This assay is used to evaluate the disclosed compounds' inhibition activities against the hERG channel.
CHO-K1 cells stably expressing hERG were grown in Ham's F-12 Medium with glutamine containing 10% heat-inactivated FBS, 1% penicillin/streptomycin, hygromycin (100 μg/ml) and G418 (100 μg/ml). Cells were grown in culture flasks at 37° C. in a 5% CO2— humidified incubator.
as §1, with “Glucose,” for “glucose,”
The voltage protocol (see Table B) was designed to simulate voltage changes during a cardiac action potential with a 300 ms depolarization to +20 mV (analogous to the plateau phase of the cardiac action potential), a repolarization for 300 ms to −50 mV (inducing a tail current) and a final step to the holding potential of −80 mV. The pulse frequency was 0.3 Hz. Control (compound-free) and compound pulse trains for each compound concentration applied contained 70 pulses.
Whole-cell current recordings and compound application were enabled by means of an automated patch clamp platform Patchliner (Nanion). EPC 10 patch clamp amplifier (HEKA) along with Patchmaster software (HEKA Elektronik Dr. Schulze GmbH) was used for data acquisition. Data were sampled at 10 kHz without filtering. Increasing compound concentrations were applied consecutively to the same cell without washouts in between.
as §2, with “PEAK” for “peak”, “IC50” for “IC50,”, “Icompound/Icontrol=(100−A)/(1+([compound]/IC50)nH)+A,” for “Icompound/Icontrol=(100-A)/(1+([compound]/IC50)nH)+A,”, “IC50” for “IC50 value”

Chain of Kv1.3 potassium channel (P22001 whole entry): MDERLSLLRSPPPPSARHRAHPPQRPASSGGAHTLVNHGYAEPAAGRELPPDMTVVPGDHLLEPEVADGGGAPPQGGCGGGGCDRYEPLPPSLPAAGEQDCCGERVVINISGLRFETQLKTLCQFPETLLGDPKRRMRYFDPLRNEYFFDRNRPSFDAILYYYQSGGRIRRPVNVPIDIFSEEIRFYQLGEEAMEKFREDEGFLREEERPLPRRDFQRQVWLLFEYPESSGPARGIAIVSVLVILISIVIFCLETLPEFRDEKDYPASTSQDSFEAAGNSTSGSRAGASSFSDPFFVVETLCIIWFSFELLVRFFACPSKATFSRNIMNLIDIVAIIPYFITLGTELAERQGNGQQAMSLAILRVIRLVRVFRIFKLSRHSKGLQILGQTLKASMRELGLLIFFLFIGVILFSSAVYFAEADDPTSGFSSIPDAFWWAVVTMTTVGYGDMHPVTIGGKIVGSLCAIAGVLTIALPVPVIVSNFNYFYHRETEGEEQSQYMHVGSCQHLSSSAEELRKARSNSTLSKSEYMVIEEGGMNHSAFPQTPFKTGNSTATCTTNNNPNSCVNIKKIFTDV

Compound	IC50 (Kv1.3 potassium channel)	IC50 (hERG channel)
NC(=O)[C@H](C1CC1)[C@H]1CN[C@@H](c2c(O)ccc(Cl)c2Cl)C1 (single isomer, unassigned) [Compound 78]	< 0.1 µM	
NC(=O)[C@@H](C1CC1)[C@H]1CN[C@@H](c2c(O)ccc(Cl)c2Cl)C1 (single isomer, unassigned) [Compound 79]	< 1 µM	
O=C(CC1CN[C@@H](c2c(O)ccc(Cl)c2Cl)C1)N1CC(O)(CO)C1 (stereo partly drawn) [Compound 33, 2-((5R)-5-(2,3-dichloro-6-hydroxyphenyl)pyrrolidin-3-yl)-1-(3-hydroxy-3-(hydroxymethyl)azetidin-1-yl)ethan-1-one]	< 0.1 µM	> 100 µM
O=C(CC1CN[C@@H](c2c(O)ccc(Cl)c2Cl)C1)NCCO (stereo partly drawn) [Compound 34, 2-((5R)-5-(2,3-dichloro-6-hydroxyphenyl)pyrrolidin-3-yl)-N-(2-hydroxyethyl)acetamide]	< 0.1 µM	> 100 µM
CN(CCO)C(=O)CC1CN[C@@H](c2c(O)ccc(Cl)c2Cl)C1 (stereo partly drawn) [Compound 35, 2-((5R)-5-(2,3-dichloro-6-hydroxyphenyl)pyrrolidin-3-yl)-N-(2-hydroxyethyl)-N-methylacetamide]	< 0.1 µM	> 30 µM
NC(=O)CC1CN[C@@H](c2cc(Cl)c(Cl)cc2O)C1 (stereo partly drawn) [Compound 38, 2-((5R)-5-(4,5-dichloro-2-hydroxyphenyl)pyrrolidin-3-yl)acetamide]	< 1 µM	> 10 µM
O=C(C[C@H]1CN[C@@H](c2c(O)ccc(Cl)c2Cl)C1)N1CCC(O)CC1 [Compound 57, 2-((3S,5R)-5-(2,3-dichloro-6-hydroxyphenyl)pyrrolidin-3-yl)-1-(4-hydroxypiperidin-1-yl)ethan-1-one]	< 1 µM	
O=C(C[C@H]1CN[C@@H](c2c(O)ccc(Cl)c2Cl)C1)N1CCC[C@H](O)C1 [Compound 59, 2-((3S,5R)-5-(2,3-dichloro-6-hydroxyphenyl)pyrrolidin-3-yl)-1-((S)-3-hydroxypiperidin-1-yl)ethan-1-one]	< 1 µM	
O=C(C[C@H]1CN[C@@H](c2c(O)ccc(Cl)c2Cl)C1)N1CC(CO)C1 [Compound 60, 2-((3S,5R)-5-(2,3-dichloro-6-hydroxyphenyl)pyrrolidin-3-yl)-1-(3-(hydroxymethyl)azetidin-1-yl)ethan-1-one]	< 1 µM	
C[C@@H](CO)NC(=O)C[C@H]1CN[C@@H](c2c(O)ccc(Cl)c2Cl)C1 [Compound 62, 2-((3S,5R)-5-(2,3-dichloro-6-hydroxyphenyl)pyrrolidin-3-yl)-N-((S)-1-hydroxypropan-2-yl)acetamide]	< 1 µM	
CC1(CO)CN(C(=O)C[C@H]2CN[C@@H](c3c(O)ccc(Cl)c3Cl)C2)C1 [Compound 69, 2-((3S,5R)-5-(2,3-dichloro-6-hydroxyphenyl)pyrrolidin-3-yl)-1-(3-(hydroxymethyl)-3-methylazetidin-1-yl)ethan-1-one]	< 1 µM	
O=C(C[C@H]1CN[C@@H](c2c(O)ccc(Cl)c2Cl)C1)N1CC(CO)(CO)C1 [Compound 70, 1-(3,3-bis(hydroxymethyl)azetidin-1-yl)-2-((3S,5R)-5-(2,3-dichloro-6-hydroxyphenyl)pyrrolidin-3-yl)ethan-1-one]	< 1 µM	

Now from value to compound, other results behind:

IC50 (Kv1.3 potassium channel)	Compound	IC50 (hERG channel)
< 1 µM	C[C@@H](C(N)=O)[C@H]1CN[C@@H](c2c(O)ccc(Cl)c2Cl)C1 (single isomer, unassigned) [Compound 44]	> 100 µM
< 0.1 µM	C[C@H](C(N)=O)[C@H]1CN[C@@H](c2c(O)ccc(Cl)c2Cl)C1 (single isomer, unassigned) [Compound 45]	> 100 µM
< 1 µM	CC[C@@H](C(N)=O)[C@H]1CN[C@@H](c2c(O)ccc(Cl)c2Cl)C1 (single isomer, unassigned) [Compound 46]	> 100 µM
< 0.1 µM	CC[C@H](C(N)=O)[C@H]1CN[C@@H](c2c(O)ccc(Cl)c2Cl)C1 (single isomer, unassigned) [Compound 47]	100 µM
< 1 µM	CC[C@H](C(N)=O)[C@@H]1CN[C@@H](c2c(O)ccc(Cl)c2Cl)C1 (single isomer, unassigned) [Compound 72]	
< 1 µM	CC[C@@H](C(N)=O)[C@@H]1CN[C@@H](c2c(O)ccc(Cl)c2Cl)C1 (single isomer, unassigned) [Compound 73]	
< 1 µM	COC[C@H](C(N)=O)[C@H]1CN[C@@H](c2c(O)ccc(Cl)c2Cl)C1 (single isomer, unassigned) [Compound 74]	> 100 µM
< 1 µM	COC[C@@H](C(N)=O)[C@H]1CN[C@@H](c2c(O)ccc(Cl)c2Cl)C1 (single isomer, unassigned) [Compound 75]	> 100 µM
< 1 µM	NC(=O)[C@@H](CO)[C@H]1CN[C@@H](c2c(O)ccc(Cl)c2Cl)C1 (single isomer, unassigned) [Compound 76]	> 100 µM
< 0.1 µM	NC(=O)C(CO)[C@H]1CN[C@@H](c2c(O)ccc(Cl)c2Cl)C1 (single isomer, unassigned) [Compound 77]	> 100 µM
< 1 µM	NC(=O)C[C@H]1CN[C@@H](c2c(O)ccc(Cl)c2Cl)C1 [Compound 31, 2-[(3S,5R)-5-(2,3-dichloro-6-hydroxyphenyl)pyrrolidin-3-yl]acetamide]	> 100 µM
< 1 µM	NC(=O)C[C@@H]1CN[C@@H](c2c(O)ccc(Cl)c2Cl)C1 [Compound 32, 2-[(3R,5R)-5-(2,3-dichloro-6-hydroxyphenyl)pyrrolidin-3-yl]acetamide]	
< 0.1 µM	CNC(=O)CC1CN[C@@H](c2c(O)ccc(Cl)c2Cl)C1 (stereo partly drawn) [Compound 36, 2-((5R)-5-(2,3-dichloro-6-hydroxyphenyl)pyrrolidin-3-yl)-N-methylacetamide]	> 30 µM
< 1 µM	CN(C)C(=O)CC1CN[C@@H](c2c(O)ccc(Cl)c2Cl)C1 (stereo partly drawn) [Compound 37, 2-((5R)-5-(2,3-dichloro-6-hdyroxyphenyl)pyrrolidin-3-yl)-N,N-dimethylacetamide]	> 30 µM
< 1 µM	C[C@@]1(CC(N)=O)CN[C@@H](c2c(O)ccc(Cl)c2Cl)C1 [Compound 50, 2-[5R-(2,3-dichloro-6-hydroxyphenyl)-3-methylpyrrolidin-3-yl]acetamide]	
< 1 µM	CC(C)(C(N)=O)[C@@H]1CN[C@@H](c2c(O)ccc(Cl)c2Cl)C1 [Compound 51, 2-[(3R,5R)-5-(2,3-dichloro-6-hydroxyphenyl)pyrrolidin-3-yl]-2-methylpropanamide]	
